Source: patent US5599806A, “Hydrazino and hydroxyamino-14-β-hydroxyandrostane derivatives active on the cardiovascular system processes for their preparation and pharmaceutical compositions containing same” (Sigma-Tau Industrie Farmaceutiche Riunite S.p.A., priority 1994, dated 1997)
Like-named read-outs stand apart in the source and are kept apart here.

What was measured:
[1] = biological target: Na^+, K^+ -ATPase receptor; experiment: displacement of the specific ^3 H-ouabain binding from the Na^+, K^+ -ATPase receptor; conditions: ^3 H-ouabain displacement, purified Na^+
Excerpt: a) displacement of the specific ^3 H-ouabain binding from the Na^+, K^+ -ATPase receptor purified according to Jorghensen (Jorghensen P., BBA, 1974, 356, 36) and Erdmann (Erdmann E. et al., Arzneim. Forsh., 1984, 34, 1314);

[2] = biological target: T1, purified Na^+, K^+ -ATPase (Canis lupus familiaris, UniProt P50997); experiment: inhibition of the activity of the purified Na^+, K^+ -ATPase (hydrolysis of ^32 P-ATP); format: biochemical
T1 construct: from tissue
Excerpt: To test the affinity for the receptor site of the Na^+, K^+ -ATPase and the inhibition of the activity of the enzyme, the following tests were used:
b) inhibition of the activity of the purified Na^+, K^+ -ATPase measured as % of hydrolysis of ^32 P-ATP in the presence and in the absence of the tested compound (Doucet A. et al., Am. J. Physiol., 1986, 251, F851)

[3] = hydrolysis of ^32 P-ATP, purified Na^+, K^+ -ATPase, read-out: Inhibitory Activity (-log IC50) (converted)

## C[C@]12CC[C@H](O)C[C@H]1CC[C@@H]1[C@@H]2CC[C@]2(C)[C@@H](CNNC(=N)N)CC[C@]12O [Comp. I-aa, 17β-[2-(Amidino)]hydrazinomethyl-5β-androstane-3β,14β-diol]
[1]
  Binding ^3 H-Ouab. Displacement (-log IC50): 6.9

## C[C@]12CC[C@H](O)C[C@H]1CC[C@@H]1[C@@H]2CC[C@]2(C)[C@@H](CNNC3=NCCN3)CC[C@]12O [Comp. I-ab, 17β-[2-(2-Imidazolin-2-yl)]hydrazinomethyl-5β-androstane-3β,14β-diol]
[1]
  Binding ^3 H-Ouab. Displacement (-log IC50): 6.6
[2]; [3]
  IC50: 3.16 µM

## CN1CCN=C1NNC[C@H]1CC[C@]2(O)[C@@H]3CC[C@@H]4C[C@@H](O)CC[C@]4(C)[C@H]3CC[C@]12C [Comp. I-ac, 17β-[2-(1-Methyl-2-imidazolin-2-yl)]hydrazinomethyl-5β-androstane-3β,14β-diol]
[1]
  Binding ^3 H-Ouab. Displacement (-log IC50): 6.0
[2]
  IC50: 10 µM

## C[C@]12CC[C@H](O)C[C@H]1CC[C@@H]1[C@@H]2CC[C@]2(C)[C@@H](CNNC3=NCCCN3)CC[C@]12O [Comp. I-ad, 17β-[2-(1,4,5,6-Tetrahydro-2-pyrimidinyl)]hydrazinomethyl-5β-androstane-3β,14β-diol]
[1]
  Binding ^3 H-Ouab. Displacement (-log IC50): 6.5
[2]
  IC50: 3.98 µM

## CN(C)CCNC(=N)NNC[C@H]1CC[C@]2(O)[C@@H]3CC[C@@H]4C[C@@H](O)CC[C@]4(C)[C@H]3CC[C@]12C [Comp. I-ae, 17β-{2-[N-(2-Dimethylaminoethyl)amidino]}hydrazinomethyl-5β-androstane-3β,14β-diol]
[1]
  Binding ^3 H-Ouab. Displacement (-log IC50): 5.4
[2]
  IC50: 31.6 µM

## C[C@]12CC[C@H](O)C[C@H]1CC[C@@H]1[C@@H]2CC[C@]2(C)[C@@H](CNNC(=N)Nc3ccccc3)CC[C@]12O [Comp. I-af, 17β-[2-(N-Phenylamidino)]hydrazinomethyl-5β-androstane-3β,14β-diol]
[1]
  Binding ^3 H-Ouab. Displacement (-log IC50): 5.0
[2]
  IC50: 63.1 µM

## CC(NNC(=N)N)[C@H]1CC[C@]2(O)[C@@H]3CC[C@@H]4C[C@@H](O)CC[C@]4(C)[C@H]3CC[C@]12C (stereo partly drawn) [Comp. I-ag, 20-(2-Amidino)hydrazino-5β-pregnane-3β,14β-diol]
[1]
  Binding ^3 H-Ouab. Displacement (-log IC50): 6.5
[2]
  IC50: 6.31 µM

## C[C@]12CC[C@H](O)C[C@H]1CC[C@@H]1[C@@H]2CC[C@]2(C)[C@@H](CNO)CC[C@]12O [Comp. I-ah, 17β-Hydroxyaminomethyl-5β-androstane-3β,14β-diol]
[1]
  Binding ^3 H-Ouab. Displacement (-log IC50): 5.0
[2]
  IC50: 79.4 µM

## CONC[C@H]1CC[C@]2(O)[C@@H]3CC[C@@H]4C[C@@H](O)CC[C@]4(C)[C@H]3CC[C@]12C [Comp. I-ai, 17β-Methoxyaminomethyl-5β-androstane-3β,14β-diol]
[1]
  Binding ^3 H-Ouab. Displacement (-log IC50): 5.1

## C[C@]12CC[C@H](O)C[C@H]1CC[C@@H]1[C@@H]2CC[C@]2(C)[C@@H](CNOCCCN)CC[C@]12O [Comp. I-ak, 17β-(3-Aminopropoxyamino)methyl-5β-androstane-3β,14β-diol]
[1]
  Binding ^3 H-Ouab. Displacement (-log IC50): 6.9
[2]
  IC50: 2.51 µM

## C[C@]12CC[C@H](O)C[C@H]1CC[C@@H]1[C@@H]2CC[C@]2(C)[C@@H](CNOCCCCN)CC[C@]12O [Comp. I-al, 17β-(4-Aminobutoxyamino)methyl-5β-androstane-3β,14β-diol]
[1]
  Binding ^3 H-Ouab. Displacement (-log IC50): 6.2

## CN(C)CCCONC[C@H]1CC[C@]2(O)[C@@H]3CC[C@@H]4C[C@@H](O)CC[C@]4(C)[C@H]3CC[C@]12C [Comp. I-an, 17β-(3-Dimethylaminopropoxyamino)methyl-5β-androstane-3β,14β-diol]
[2]
  IC50: 63.1 µM

## CN(C)CCCCONC[C@H]1CC[C@]2(O)[C@@H]3CC[C@@H]4C[C@@H](O)CC[C@]4(C)[C@H]3CC[C@]12C [Comp. I-ao, 17β-(4-Dimethylaminobutoxyamino)methyl-5β-androstane-3β,14β-diol]
[2]
  IC50: 79.4 µM

## CN(C)CCON(C)C[C@H]1CC[C@]2(O)[C@@H]3CC[C@@H]4C[C@@H](O)CC[C@]4(C)[C@H]3CC[C@]12C [Comp. I-ap, 17β-[N-Methyl-N-(2-dimethylaminoethoxy)amino]methyl-5β-androstane-3β,14β-diol]
[1]
  Binding ^3 H-Ouab. Displacement (-log IC50): 5.0
[2]; [3]
  IC50: 100 µM

## C[C@]12CC[C@H](O)C[C@H]1CC[C@@H]1[C@@H]2CC[C@]2(C)[C@@H](CNOCCNC(=N)N)CC[C@]12O [Comp. I-aq, 17β-(2-Guanidinoethoxyamino)methyl-5β-androstane-3β,14β-diol]
[1]
  Binding ^3 H-Ouab. Displacement (-log IC50): 6.0
[2]; [3]
  IC50: 39.8 µM

## CC(NOCCN(C)C)[C@H]1CC[C@]2(O)[C@@H]3CC[C@@H]4C[C@@H](O)CC[C@]4(C)[C@H]3CC[C@]12C (stereo partly drawn) [Comp. I-ar, 20β-(2-Dimethylaminoethoxyamino)-5β-pregnane-3β,14β-diol]
[1]
  Binding ^3 H-Ouab. Displacement (-log IC50): 5.7
[2]
  IC50: 63.1 µM

## C[C@]12CC[C@H](O)C[C@H]1CC[C@@H]1[C@@H]2CC[C@]2(C)[C@@H](C=CCNNC(=N)N)CC[C@]12O [Comp. I-as, 17β-{3-[2-(Amidino)]hydrazino-1-propenyl}-5β-androstane-3β,14β-diol]
[1]
  Binding ^3 H-Ouab. Displacement (-log IC50): 6.0
[2]
  IC50: 31.6 µM

## C[C@]12CC[C@H](O)C[C@H]1CC[C@@H]1[C@@H]2CC[C@]2(C)[C@@H](C=CCNOCCN)CC[C@]12O [Comp. I-at, 17β-[3-(2-Aminoethoxyamino)-1-propenyl]-5β-androstane-3β,14β-diol]
[1]
  Binding ^3 H-Ouab. Displacement (-log IC50): 6.7
[2]
  IC50: 10 µM

## CN(C)CCONCC=C[C@H]1CC[C@]2(O)[C@@H]3CC[C@@H]4C[C@@H](O)CC[C@]4(C)[C@H]3CC[C@]12C [Comp. I-au, 17β-[3-(2-Dimethylaminoethoxyamino)-1-propenyl]-5β-androstane-3β,14β-diol]
[1]
  Binding ^3 H-Ouab. Displacement (-log IC50): 5.9
[2]; [3]
  IC50: 39.8 µM

## CC(=C[C@H]1CC[C@]2(O)[C@@H]3CC[C@@H]4C[C@@H](O)CC[C@]4(C)[C@H]3CC[C@]12C)CNOCCN(C)C [Comp. I-av, 17β-[3-(2-Dimethylaminoethoxyamino)-2-methyl-1-propenyl]-5β-androstane-3β,14β-diol]
[1]
  Binding ^3 H-Ouab. Displacement (-log IC50): 5.7
[2]
  IC50: 63.1 µM

## CN(C)CCONCC[C@H]1CC[C@]2(O)[C@@H]3CC[C@@H]4C[C@@H](O)CC[C@]4(C)[C@H]3CC[C@]12C [Comp. I-ax, 17β-[2-(2-Dimethylaminoethoxyamino)ethyl]-5β-androstane-3β,14β-diol]
[1]
  Binding ^3 H-Ouab. Displacement (-log IC50): 5.7
[2]; [3]
  IC50: 39.8 µM

## CN(C)CCONCCC[C@H]1CC[C@]2(O)[C@@H]3CC[C@@H]4C[C@@H](O)CC[C@]4(C)[C@H]3CC[C@]12C [Comp. I-ay, 17β-[3-(2-Dimethylaminoethoxyamino)propyl]-5β-androstane-3β,14β-diol]
[1]
  Binding ^3 H-Ouab. Displacement (-log IC50): 5.8
[2]; [3]
  IC50: 39.8 µM

## CN(C)CCONC[C@@]1(O)CC[C@]2(O)[C@@H]3CC[C@@H]4C[C@@H](O)CC[C@]4(C)[C@H]3CC[C@]12C [Comp. I-ba, 17β-(2-Dimethylaminoethoxyamino)methyl-5β-androstane-3β,14β,17α-diol]
[1]
  Binding ^3 H-Ouab. Displacement (-log IC50): 5.2
[2]
  IC50: 100 µM

## CN(C)CCONC[C@H]1CC[C@]2(O)[C@@H]3CC[C@@H]4C[C@@H](OCCCN5CCCC5)CC[C@]4(C)[C@H]3CC[C@]12C [Comp. I-be, 3β-(3-(1-Pyrrolidinyl)propoxy)-17β-(2-dimethylaminoethoxyamino)methyl-5β-androstane-3β,14β-diol]
[1]
  Binding ^3 H-Ouab. Displacement (-log IC50): 6.0
